Experimental data as given in patent publication US10550112B2, “Pyrimidines as EGFR inhibitors and methods of treating disorders” (Dana-Farber Cancer Institute, Inc., priority 2015, dated 2020).

Key:
Assay type in all cases: cell-based, Murine
[1] = molecular target: EGFR wild type Ba/F3 cell line (Homo sapiens, UniProt P00533, cells depend on it, form not given); assay: Ba/F3 cell proliferation MTS assay, EGFR wild type; details: 72 hours
[2] = molecular target: HER2 InsYVMA Ba/F3 cell line (Homo sapiens, UniProt P04626, DUP772-775, cells depend on it); assay: Ba/F3 cell proliferation MTS assay, HER2 InsYVMA; details: 72 hours;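 note: murine Ba/F3 cells engineered to carry mutant HER2, viability read colorimetrically by MTS after 72 h of exposure, EC50 from sigmoidal non-linear regression of dose response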
Sequence of HER2 InsYVMA Ba/F3 cell line (P04626 with tags, fused parts or gaps DUP772-775): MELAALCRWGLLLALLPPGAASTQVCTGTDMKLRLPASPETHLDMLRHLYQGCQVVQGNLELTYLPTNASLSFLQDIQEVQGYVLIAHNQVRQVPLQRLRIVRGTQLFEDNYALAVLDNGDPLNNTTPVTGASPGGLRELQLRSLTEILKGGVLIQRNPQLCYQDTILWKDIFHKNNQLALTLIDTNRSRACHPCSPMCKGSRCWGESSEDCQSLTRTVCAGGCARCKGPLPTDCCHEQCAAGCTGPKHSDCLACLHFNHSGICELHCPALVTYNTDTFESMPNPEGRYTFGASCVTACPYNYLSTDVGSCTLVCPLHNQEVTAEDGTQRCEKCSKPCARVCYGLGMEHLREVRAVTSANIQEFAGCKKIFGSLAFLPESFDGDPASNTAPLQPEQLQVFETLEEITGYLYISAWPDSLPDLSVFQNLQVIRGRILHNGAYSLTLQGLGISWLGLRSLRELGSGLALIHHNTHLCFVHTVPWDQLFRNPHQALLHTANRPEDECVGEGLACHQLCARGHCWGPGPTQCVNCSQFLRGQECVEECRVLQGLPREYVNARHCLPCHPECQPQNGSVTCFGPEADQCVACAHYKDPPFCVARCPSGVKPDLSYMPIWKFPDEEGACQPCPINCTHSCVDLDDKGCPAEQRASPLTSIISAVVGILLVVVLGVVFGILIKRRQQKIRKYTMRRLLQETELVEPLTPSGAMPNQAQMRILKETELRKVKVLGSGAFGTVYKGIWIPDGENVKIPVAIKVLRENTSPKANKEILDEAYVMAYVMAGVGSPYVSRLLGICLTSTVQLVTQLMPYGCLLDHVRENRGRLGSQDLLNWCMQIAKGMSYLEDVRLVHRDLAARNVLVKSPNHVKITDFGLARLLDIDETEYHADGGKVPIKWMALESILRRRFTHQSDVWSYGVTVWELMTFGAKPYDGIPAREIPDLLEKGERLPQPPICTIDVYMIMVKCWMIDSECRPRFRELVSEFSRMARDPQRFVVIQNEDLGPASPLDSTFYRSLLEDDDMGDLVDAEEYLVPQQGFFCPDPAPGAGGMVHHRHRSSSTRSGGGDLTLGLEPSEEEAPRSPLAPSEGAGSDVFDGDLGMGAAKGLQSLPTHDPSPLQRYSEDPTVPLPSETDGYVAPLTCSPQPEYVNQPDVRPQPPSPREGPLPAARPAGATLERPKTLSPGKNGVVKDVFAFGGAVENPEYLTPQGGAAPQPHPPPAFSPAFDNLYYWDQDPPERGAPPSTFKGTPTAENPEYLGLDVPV
Description: (§1) Murine Ba/F3 cells engineered to express mutant and wild type EGFR or HER2 protein were used to perform single drug screens. Cell viability was assessed after 72 hours of compound exposure using the colorimetric cell proliferation MTS assay kit (Promega).
(§2) The curves were fitted using a non-linear regression model with a sigmoidal dose response.

[3] = molecular target: EGFR InsSVD Ba/F3 cell line (Homo sapiens, UniProt P00533, DUP768-770, cells depend on it); assay: Ba/F3 cell proliferation MTS assay, EGFR InsSVD; details: EGFR InsSVD (D770_N771insSVD) Ba/F3 cells, 72 hours
Sequence of EGFR InsSVD Ba/F3 cell line (P00533 with tags, fused parts or gaps DUP768-770): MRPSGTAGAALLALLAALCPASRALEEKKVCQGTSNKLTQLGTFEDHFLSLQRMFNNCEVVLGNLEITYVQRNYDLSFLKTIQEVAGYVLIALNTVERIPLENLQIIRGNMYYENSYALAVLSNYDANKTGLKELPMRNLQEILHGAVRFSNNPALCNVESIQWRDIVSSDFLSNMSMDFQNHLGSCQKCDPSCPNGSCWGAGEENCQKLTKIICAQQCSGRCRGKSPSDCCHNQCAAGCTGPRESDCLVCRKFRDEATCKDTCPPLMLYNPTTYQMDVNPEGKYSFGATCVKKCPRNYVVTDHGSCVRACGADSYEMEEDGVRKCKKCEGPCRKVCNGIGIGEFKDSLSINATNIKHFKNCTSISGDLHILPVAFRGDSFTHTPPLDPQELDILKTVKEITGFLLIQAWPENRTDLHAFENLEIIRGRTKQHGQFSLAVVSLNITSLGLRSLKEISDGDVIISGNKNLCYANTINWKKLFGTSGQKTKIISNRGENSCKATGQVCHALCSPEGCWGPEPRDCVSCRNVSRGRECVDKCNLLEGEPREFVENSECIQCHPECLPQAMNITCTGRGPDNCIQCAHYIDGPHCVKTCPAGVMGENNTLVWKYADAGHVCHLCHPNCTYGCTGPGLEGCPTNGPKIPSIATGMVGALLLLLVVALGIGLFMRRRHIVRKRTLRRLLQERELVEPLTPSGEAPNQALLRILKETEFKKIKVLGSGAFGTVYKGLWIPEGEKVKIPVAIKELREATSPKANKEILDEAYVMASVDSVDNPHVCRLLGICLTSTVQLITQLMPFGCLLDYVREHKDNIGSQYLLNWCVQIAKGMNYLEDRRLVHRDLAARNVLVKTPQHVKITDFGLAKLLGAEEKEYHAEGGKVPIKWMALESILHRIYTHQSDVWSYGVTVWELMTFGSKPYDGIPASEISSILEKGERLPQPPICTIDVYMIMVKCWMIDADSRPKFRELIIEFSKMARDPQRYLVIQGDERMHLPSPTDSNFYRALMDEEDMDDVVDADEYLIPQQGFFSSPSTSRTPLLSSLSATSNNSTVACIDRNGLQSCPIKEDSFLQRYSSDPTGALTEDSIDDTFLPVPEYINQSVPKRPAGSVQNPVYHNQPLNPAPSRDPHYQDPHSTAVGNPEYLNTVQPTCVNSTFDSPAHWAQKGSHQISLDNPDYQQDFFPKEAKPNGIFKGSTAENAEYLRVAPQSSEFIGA
Description: (§3) Different EGFR exon 20 insertion mutations were introduced via site directed mutagenesis into full length EGFR using the Quick Change Site-Directed Mutagenesis kit (Stratagene; La Jolla, Calif.) according to the manufacturer's instructions. All constructs were confirmed by DNA sequencing. The constructs were shuttled into the retroviral vector JP1540 using the BD Creator™ System (BD Biosciences). […] Stable clones were obtained by selection in puromycin (2 μg/ml) and growth in IL-3 free media.
as §1, §2

[4] = molecular target: HER2 wild type Ba/F3 cell line (Homo sapiens, UniProt P04626); assay: Ba/F3 cell proliferation MTS assay, HER2 wild type; details: HER2 wild type Ba/F3 cells, 72 hours
Description: as §1, §2

[5] = molecular target: EGFR InsGY Ba/F3 cell line (Homo sapiens, UniProt P00533, DELINS770-770GY, cells depend on it); assay: Ba/F3 cell proliferation MTS assay, EGFR InsGY; details: EGFR InsGY (D770delinsGY) Ba/F3 cells, 72 hours
Sequence of EGFR InsGY Ba/F3 cell line (P00533 with tags, fused parts or gaps DELINS770-770GY): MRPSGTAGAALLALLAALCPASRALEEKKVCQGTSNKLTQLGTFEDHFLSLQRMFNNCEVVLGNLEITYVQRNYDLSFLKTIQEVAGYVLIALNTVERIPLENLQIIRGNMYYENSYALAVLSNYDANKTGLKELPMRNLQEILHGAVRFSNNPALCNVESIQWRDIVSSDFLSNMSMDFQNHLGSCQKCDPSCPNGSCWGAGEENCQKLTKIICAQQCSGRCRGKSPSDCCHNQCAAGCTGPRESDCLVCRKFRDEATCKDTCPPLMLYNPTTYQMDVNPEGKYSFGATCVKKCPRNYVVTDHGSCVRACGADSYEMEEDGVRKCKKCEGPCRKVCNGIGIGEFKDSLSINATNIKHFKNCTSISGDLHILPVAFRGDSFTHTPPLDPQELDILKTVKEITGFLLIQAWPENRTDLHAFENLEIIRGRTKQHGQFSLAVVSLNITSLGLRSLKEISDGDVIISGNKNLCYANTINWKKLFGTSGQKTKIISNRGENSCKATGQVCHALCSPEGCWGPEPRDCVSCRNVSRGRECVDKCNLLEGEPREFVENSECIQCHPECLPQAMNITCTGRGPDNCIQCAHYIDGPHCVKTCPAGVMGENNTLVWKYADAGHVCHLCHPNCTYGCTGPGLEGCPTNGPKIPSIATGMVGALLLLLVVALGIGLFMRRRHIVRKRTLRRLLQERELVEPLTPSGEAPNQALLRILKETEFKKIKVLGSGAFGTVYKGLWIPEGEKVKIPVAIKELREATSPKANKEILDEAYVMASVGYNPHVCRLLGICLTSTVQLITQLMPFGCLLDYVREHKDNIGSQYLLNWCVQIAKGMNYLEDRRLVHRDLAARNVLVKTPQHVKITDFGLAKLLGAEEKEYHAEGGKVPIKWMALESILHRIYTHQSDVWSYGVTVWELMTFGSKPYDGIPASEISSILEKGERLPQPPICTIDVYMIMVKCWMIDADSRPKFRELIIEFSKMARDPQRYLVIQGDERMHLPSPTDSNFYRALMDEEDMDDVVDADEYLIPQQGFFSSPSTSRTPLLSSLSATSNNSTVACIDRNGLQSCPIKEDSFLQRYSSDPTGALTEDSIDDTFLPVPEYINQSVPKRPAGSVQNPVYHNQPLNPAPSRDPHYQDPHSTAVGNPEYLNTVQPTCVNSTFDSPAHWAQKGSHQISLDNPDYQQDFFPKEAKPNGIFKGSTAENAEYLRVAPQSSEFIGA
Description: as §3, §1, §2

Sequence of EGFR wild type Ba/F3 cell line (P00533 whole entry, stated change not applied): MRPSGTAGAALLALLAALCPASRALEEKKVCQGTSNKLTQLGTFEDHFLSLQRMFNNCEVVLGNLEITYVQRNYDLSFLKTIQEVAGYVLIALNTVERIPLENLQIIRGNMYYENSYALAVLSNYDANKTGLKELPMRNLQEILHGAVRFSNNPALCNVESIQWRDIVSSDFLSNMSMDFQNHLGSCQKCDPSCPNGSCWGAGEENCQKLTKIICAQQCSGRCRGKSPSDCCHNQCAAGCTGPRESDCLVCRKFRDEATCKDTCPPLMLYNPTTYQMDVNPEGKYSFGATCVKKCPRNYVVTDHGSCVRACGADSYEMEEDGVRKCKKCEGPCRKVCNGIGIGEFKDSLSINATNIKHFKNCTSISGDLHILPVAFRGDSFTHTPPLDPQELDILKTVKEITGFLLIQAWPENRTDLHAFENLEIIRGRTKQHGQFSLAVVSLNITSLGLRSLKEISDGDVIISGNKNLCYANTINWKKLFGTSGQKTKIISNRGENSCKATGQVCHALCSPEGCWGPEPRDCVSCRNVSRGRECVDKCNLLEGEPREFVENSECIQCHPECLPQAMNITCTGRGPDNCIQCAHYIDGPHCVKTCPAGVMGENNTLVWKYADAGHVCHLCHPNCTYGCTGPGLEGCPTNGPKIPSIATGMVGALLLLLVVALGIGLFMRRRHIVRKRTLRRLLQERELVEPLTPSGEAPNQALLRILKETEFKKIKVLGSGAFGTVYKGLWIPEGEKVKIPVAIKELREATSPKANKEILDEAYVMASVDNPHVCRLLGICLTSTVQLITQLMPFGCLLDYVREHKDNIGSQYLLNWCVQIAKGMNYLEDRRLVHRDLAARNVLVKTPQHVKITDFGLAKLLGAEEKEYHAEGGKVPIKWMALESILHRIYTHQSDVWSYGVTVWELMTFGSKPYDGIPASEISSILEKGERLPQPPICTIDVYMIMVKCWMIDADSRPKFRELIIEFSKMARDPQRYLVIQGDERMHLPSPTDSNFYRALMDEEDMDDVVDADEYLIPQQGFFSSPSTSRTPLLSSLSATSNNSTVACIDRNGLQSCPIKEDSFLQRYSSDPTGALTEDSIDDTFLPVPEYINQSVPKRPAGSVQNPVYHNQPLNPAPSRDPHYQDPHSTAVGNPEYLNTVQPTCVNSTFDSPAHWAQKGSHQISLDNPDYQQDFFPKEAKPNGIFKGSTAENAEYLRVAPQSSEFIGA

Compound | EC50 [1] [nM] | EC50 [2] [nM] | EC50 [3] [nM] | EC50 [4] [nM] | EC50 [5] [nM]
C=CC(=O)Nc1cccc(N(C(=O)OCc2ccc(F)cc2)c2ccnc(Nc3cnn(C)c3C)n2)c1 [Compound I-22, 4-fluorobenzyl (3-acrylamidophenyl)(2-((1,5-dimethyl-1H-pyrazol-4-yl)amino)pyrimidin-4-yl)carbamate] | < 100 | < 100 | < 100 | < 100 | < 100
CN(C)C/C=C/C(=O)Nc1cccc(N(C(=O)OCc2ccc(F)cc2)c2ccnc(Nc3cnn(C)c3)n2)c1 [Compound I-28, 4-fluorobenzyl (E)-(3-(4-(dimethylamino)but-2-enamido)phenyl)(2-((1-methyl-1H-pyrazol-4-yl)amino)pyrimidin-4-yl)carbamate] | < 100 | < 100 | > 1000 | < 100 | 500 to 1000
Cn1cc(Nc2nccc(N(C(=O)OCc3ccc(F)cc3)c3cccc(NC(=O)/C=C/CN4CCCCCC4)c3)n2)cn1 [Compound I-27, 4-fluorobenzyl (E)-(3-(4-(azepan-1-yl)but-2-enamido)phenyl)(2-((1-methyl-1H-pyrazol-4-yl)amino)pyrimidin-4-yl)carbamate] | < 100 | < 100 | 500 to 1000 | < 100 | 500 to 1000
C=CC(=O)Nc1cccc(N(C(=O)OCc2ccc(F)cc2F)c2ccnc(Nc3cnn(C)c3)n2)c1 [Compound I-29, 2,4-difluorobenzyl (3-acrylamidophenyl)(2-((1-methyl-1H-pyrazol-4-yl)amino)pyrimidin-4-yl)carbamate] | < 100 | < 100 | < 100 | < 100 | < 100
C=CC(=O)Nc1cccc(N(C(=O)OCc2ccc(F)cc2)c2ccnc(Nc3cnn(CC(=O)NC)c3)n2)c1 [Compound I-31, 4-fluorobenzyl (3-acrylamidophenyl)(2-((1-(2-(methylamino)-2-oxoethyl)-1H-pyrazol-4-yl)amino)pyrimidin-4-yl)carbamate] | < 100 | < 100 | 100 to 500 | < 100 | 100 to 500
C=CC(=O)Nc1cccc(N(C(=O)OCc2ccc(F)cc2)c2ccnc(Nc3cnn(C4CCN(C)CC4)c3)n2)c1 [Compound I-30, 4-fluorobenzyl (3-acrylamidophenyl)(2-((1-(1-methylpiperidin-4-yl)-1H-pyrazol-4-yl)amino)pyrimidin-4-yl)carbamate] | < 100 | < 100 | < 100 | < 100 | < 100
Cn1cc(Nc2nccc(N(C(=O)OCc3ccc(F)cc3)c3cccc(NC(=O)/C=C/CN4CCCCC4)c3)n2)cn1 [Compound I-24, 4-fluorobenzyl (E)-(2-((1-methyl-1H-pyrazol-4-yl)amino)pyrimidin-4-yl)(3-(4-(piperidin-1-yl)but-2-enamido)phenyl)carbamate] | < 100 | < 100 | 500 to 1000 | < 100 | 100 to 500
C=CC(=O)Nc1cccc(N(C(=O)OCc2cc3ccccc3s2)c2ccnc(Nc3cnn(C)c3)n2)c1 [Compound I-7, benzo[b]thiophen-2-ylmethyl (3-acrylamidophenyl)(2-((1-methyl-1H-pyrazol-4-yl)amino)pyrimidin-4-yl)carbamate] | 100 to 500 | 500 to 1000 | 100 to 500 | 100 to 500 | < 100
C=CC(=O)Nc1cccc(N(C(=O)OCc2csc3ccccc23)c2ccnc(Nc3ccn(C)n3)n2)c1 [Compound I-18, benzo[b]thiophen-3-ylmethyl (3-acrylamidophenyl)(2-((1-methyl-1H-pyrazol-3-yl)amino)pyrimidin-4-yl)carbamate] | > 1000 | – | – | > 1000 | > 1000
C=CC(=O)Nc1cccc(N(C(=O)OCc2ccc(F)cc2)c2ccnc(Nc3cnn(C)c3)n2)c1 [Compound I-5, 4-fluorobenzyl (3-acrylamidophenyl)(2-((1-methyl-1H-pyrazol-4-yl)amino)pyrimidin-4-yl)carbamate] | < 100 | < 100 | < 100 | < 100 | < 100

Now from value to molecule:

EC50 [1] [nM] | EC50 [2] [nM] | EC50 [3] [nM] | EC50 [4] [nM] | EC50 [5] [nM] | Compound
< 100 | < 100 | < 100 | < 100 | < 100 | C=CC(=O)Nc1cccc(N(C(=O)OCc2cccc(F)c2)c2ccnc(Nc3cnn(C)c3)n2)c1 [Compound I-3, 3-fluorobenzyl (3-acrylamidophenyl)(2-((1-methyl-1H-pyrazol-4-yl)amino)pyrimidin-4-yl)carbamate]
< 100 | 100 to 500 | < 100 | < 100 | < 100 | C=CC(=O)Nc1cccc(N(C(=O)OCc2cccc(F)c2)c2ccnc(Nc3ccn(C)n3)n2)c1 [Compound I-2, 3-fluorobenzyl (3-acrylamidophenyl)(2-((1-methyl-1H-pyrazol-3-yl)amino)pyrimidin-4-yl)carbamate]
100 to 500 | > 1000 | – | 100 to 500 | – | Cn1cc(Nc2nccc(N(C(=O)OCc3ccc(F)cc3)c3cccc(NC(=O)/C=C/CN4CCC(O)CC4)c3)n2)cn1 [Compound I-25, 4-fluorobenzyl (E)-(3-(4-(4-hydroxypiperidin-1-yl)but-2-enamido)phenyl)(2-((1-methyl-1H-pyrazol-4-yl)amino)pyrimidin-4-yl)carbamate]
< 100 | < 100 | < 100 | < 100 | < 100 | C=CC(=O)Nc1cccc(N(C(=O)OCc2ccc(F)cc2)c2ccnc(Nc3ccn(C)n3)n2)c1 [Compound I-4, 4-fluorobenzyl (3-acrylamidophenyl)(2-((1-methyl-1H-pyrazol-3-yl)amino)pyrimidin-4-yl)carbamate]
< 100 | 100 to 500 | 100 to 500 | < 100 | 100 to 500 | C=CC(=O)Nc1cccc(N(C(=O)OCc2ccc(F)cc2)c2ccnc(Nc3cnn(C)c3C(F)(F)F)n2)c1 [Compound I-23, 4-fluorobenzyl (3-acrylamidophenyl)(2-((1-methyl-5-(trifluoromethyl)-1H-pyrazol-4-yl)amino)pyrimidin-4-yl)carbamate]
< 100 | 100 to 500 | 500 to 1000 | < 100 | 100 to 500 | Cn1cc(Nc2nccc(N(C(=O)OCc3ccc(F)cc3)c3cccc(NC(=O)/C=C/CN4CCOCC4)c3)n2)cn1 [Compound I-26, 4-fluorobenzyl (E)-(2-((1-methyl-1H-pyrazol-4-yl)amino)pyrimidin-4-yl)(3-(4-morpholinobut-2-enamido)phenyl)carbamate]
< 100 | < 100 | 100 to 500 | < 100 | < 100 | C=CC(=O)Nc1cccc(N(C(=O)OCc2ccc(F)cc2)c2ccnc(Nc3cnn(CCN4CCOCC4)c3)n2)c1 [Compound I-20, 4-fluorobenzyl (3-acrylamidophenyl)(2-((1-(2-morpholinoethyl)-1H-pyrazol-4-yl)amino)pyrimidin-4-yl)carbamate]
< 100 | < 100 | < 100 | < 100 | < 100 | C=CC(=O)Nc1cccc(N(C(=O)OCc2ccc(F)cc2)c2ccnc(Nc3cnn(C4CCN(C)C4)c3)n2)c1 (centres unmarked) [Compound I-32, 4-fluorobenzyl (3-acrylamidophenyl)(2-((1-(1-methylpyrrolidin-3-yl)-1H-pyrazol-4-yl)amino)pyrimidin-4-yl)carbamate]
